According to patent US12275729B2 (Merck Sharp & Dohme LLC, priority 2017, dated 2025):

Columns and labels:
IDO1 [1] = molecular target: T1, IDO1 (Homo sapiens, UniProt P14902); assay: IDO1 Cellular Assay in HeLa Cells Stimulated with IFNγ; type: cell-based; settings: read-out: Hela IC50
IDO1 [2] = molecular target: T1, IDO1; assay: IDO1 Human Whole Blood Assay; type: cell-based; parameters: Human whole blood was drawn in sodium heparin coated tubes from healthy internal donors; from tissue; host or cells: human whole blood from healthy donors, stimulated with LPS and IFNγ; settings: LPS and IFNγ stimulated

T1 sequence (P14902 whole entry): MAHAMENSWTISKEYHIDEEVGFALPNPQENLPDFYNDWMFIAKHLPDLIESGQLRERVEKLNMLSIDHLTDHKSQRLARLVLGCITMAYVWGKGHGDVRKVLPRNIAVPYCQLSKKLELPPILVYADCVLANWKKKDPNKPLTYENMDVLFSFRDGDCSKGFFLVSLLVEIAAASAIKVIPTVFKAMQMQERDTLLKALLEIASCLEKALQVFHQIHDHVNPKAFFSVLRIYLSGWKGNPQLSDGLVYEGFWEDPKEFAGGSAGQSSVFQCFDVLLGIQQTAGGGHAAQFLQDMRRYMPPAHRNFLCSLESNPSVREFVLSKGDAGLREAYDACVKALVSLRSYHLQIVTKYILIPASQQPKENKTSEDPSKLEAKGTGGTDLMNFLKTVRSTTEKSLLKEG

IC50 (IDO1 [1]; about 48 hours)	IC50 (IDO1 [2])	IC50 (IDO1 [1])	SMILES
1.87 nM	4 nM	–	O=C(Nc1ccc(F)cc1)C1(c2ccc3c(n2)CCCN3c2ccnc(C3CC3)n2)CCC1 [Example 401, 1-(5-(2-cyclopropylpyrimidin-4-yl)-5,6,7,8-tetrahydro-1,5-naphthyridin-2-yl)-N-(4-fluorophenyl)cyclobutane-1-carboxamide]
3.2 nM	33 nM	–	CC(NC(=O)c1ccc(F)cc1)c1ccc2c(n1)CCCN2C(=O)c1cc(Cl)cc(Cl)c1 (stereo not shown) [Example 149, N-{1-[5-(3,5-dichlorobenzene-1-carbonyl)-5,6,7,8-tetrahydro-1,5-naphthyridin-2-yl]ethyl}-4-fluorobenzamide]
6.3 nM	67 nM	–	CC(NC(=O)c1ccc(F)cc1)c1ccc2c(n1)CCCN2C(=O)c1ccn(C)n1 (stereo not shown) [Example 138, 4-fluoro-N-{1-[5-(1-methyl-1H-pyrazole-3-carbonyl)-5,6,7,8-tetrahydro-1,5-naphthyridin-2-yl]ethyl}benzamide]
3.5 nM	245 nM	–	CC(NC(=O)c1ccc(F)cc1)c1ccc2c(n1)CCCN2Cc1cccc(Cl)c1 (stereo not shown) [Example 229, N-(1-{5-[(3-chlorophenyl)methyl]-5,6,7,8-tetrahydro-1,5-naphthyridin-2-yl}ethyl)-4-fluorobenzamide]
6 nM	378 nM	–	CC(NC(=O)c1ccc(F)cc1)c1ccc2c(c1)CCCN2C(CO)c1cccc(Cl)c1 (single isomer, unassigned) [Example 92]
5.7 nM	450 nM	–	CC(NC(=O)c1ccc(F)cc1)c1ccc2c(c1)CCCN2C(CO)c1cccc(Cl)c1 (single isomer, unassigned) [Example 93]
1.91 nM	42 nM	–	Cc1cccc(N2CCCc3nc(C4(NC(=O)c5ccc(Cl)cc5)CCC4)ccc32)n1 [Example 405, 4-chloro-N-(1-(5-(6-methylpyridin-2-yl)-5,6,7,8-tetrahydro-1,5-naphthyridin-2-yl)cyclobutyl)benzamide]
1.6 nM	131 nM	–	O=C(Nc1ccc(F)cc1)C1(c2ccc3c(n2)CCCN3c2ccnc(C(F)(F)F)n2)COC1 [Example 393, N-(4-fluorophenyl)-3-(5-(2-(trifluoromethyl)pyrimidin-4-yl)-5,6,7,8-tetrahydro-1,5-naphthyridin-2-yl)oxetane-3-carboxamide]
–	12 nM	1.7 nM	Cc1nccc(N2CCCc3nc(C4(C(=O)Nc5ccc(F)cc5)CC4(F)F)ccc32)n1 (single isomer, unassigned) [Example 422, 2,2-difluoro-N-(4-fluorophenyl)-1-(5-(2-methylpyrimidin-4-yl)-5,6,7,8-tetrahydro-1,5-naphthyridin-2-yl)cyclopropanecarboxamide]
–	70 nM	0.79 nM	O=C(OC1CC1)N1CCCc2nc(C3(C(=O)Nc4ccc(F)cc4)CCC3)ccc21 [Example 410, cyclopropyl 6-(1-((4-fluorophenyl)carbamoyl)cyclobutyl)-3,4-dihydro-1,5-naphthyridine-1(2H)-carboxylate]
2.7 nM	29 nM	–	CC(C(=O)Nc1ccc(F)cc1)c1ccc2c(n1)CCCN2C(=O)C1CCCO1 (stereo in doubt) [Example 162, N-(4-fluorophenyl)-2-{5-[(2R)-oxolane-2-carbonyl]-5,6,7,8-tetrahydro-1,5-naphthyridin-2-yl}propanamide]
–	198 nM	4.99 nM	CC(C(=O)Nc1ccc(F)cc1)c1ccc2c(n1)CCCN2c1ccnc(C(F)(F)F)n1 (stereo not shown) [Example 364, N-(4-fluorophenyl)-2-(5-(2-(trifluoromethyl)pyrimidin-4-yl)-5,6,7,8-tetrahydro-1,5-naphthyridin-2-yl)propanamide]
3 nM	93 nM	–	O=C(c1cccc(Cl)c1)N1CCc2nc(C3(C(=O)Nc4ccc(F)cc4)CCC3)ccc21 [Example 275, 1-[1-(3-chlorobenzene-1-carbonyl)-2,3-dihydro-1H-pyrrolo[3,2-b]pyridin-5-yl]-N-(4-fluorophenyl)cyclobutane-1-carboxamide]
–	167 nM	13 nM	Cc1ncc(N2CCCc3nc(C(C)NC(=O)c4ccc(Cl)cc4)ccc32)s1 (stereo not shown) [Example 356, 4-chloro-N-(1-(5-(2-methylthiazol-5-yl)-5,6,7,8-tetrahydro-1,5-naphthyridin-2-yl)ethyl)benzamide]
1.9 nM	2610 nM	–	Cc1nc(C(=O)N2CCCc3cc([C@H](C)C(=O)Nc4ccc(F)cn4)ccc32)no1 [Example 65, (2S)-N-(5-fluoropyridin-2-yl)-2-[1-(5-methyl-1,2,4-oxadiazole-3-carbonyl)-1,2,3,4-tetrahydroquinolin-6-yl]propanamide]
–	78 nM	24.6 nM	CC(NC(=O)c1ccc(F)cc1)c1ccc2c(n1)CCCN2C(=O)OCC(F)F (stereo not shown) [Example 309, 2,2-difluoroethyl 6-(1-(4-fluorobenzamido)ethyl)-3,4-dihydro-1,5-naphthyridine-1(2H)-carboxylate]
–	100 nM	8.22 nM	CC(NC(=O)c1ccc(Cl)cc1)c1ccc2c(n1)CCCN2c1cccc(CO)n1 (stereo not shown) [Example 346, 4-chloro-N-(1-(5-(6-(hydroxymethyl)pyridin-2-yl)-5,6,7,8-tetrahydro-1,5-naphthyridin-2-yl)ethyl)benzamide]
–	8 nM	2.02 nM	CCC(COC)OC(=O)N1CCCc2nc(C(C)NC(=O)c3ccc(F)cc3)ccc21 (stereo not shown) [Example 331, 1-methoxybutan-2-yl 6-(1-(4-fluorobenzamido)ethyl)-3,4-dihydro-1,5-naphthyridine-1(2H)-carboxylate]
1.2 nM	89 nM	–	CCc1ccnc(C(=O)N2CCCc3nc(C(C)NC(=O)c4ccc(Cl)cc4)ccc32)c1 (stereo not shown) [Example 286, 4-chloro-N-(1-(5-(4-ethylpicolinoyl)-5,6,7,8-tetrahydro-1,5-naphthyridin-2-yl)ethyl)benzamide]
2.92 nM	44 nM	–	Cc1nccc(N2CCCc3nc(C(C)(C)C(=O)Nc4ccc(F)cc4)ccc32)n1 [Example 389, N-(4-fluorophenyl)-2-methyl-2-(5-(2-methylpyrimidin-4-yl)-5,6,7,8-tetrahydro-1,5-naphthyridin-2-yl)propanamide]
–	32 nM	1.72 nM	CC(NC(=O)c1ccc(Cl)cc1)c1ccc2c(n1)CCCN2c1ccnc(C(F)(F)F)n1 (stereo not shown) [Example 345, 4-chloro-N-(1-(5-(2-(trifluoromethyl)pyrimidin-4-yl)-5,6,7,8-tetrahydro-1,5-naphthyridin-2-yl)ethyl)benzamide]
–	239 nM	1.35 nM	O=C(OC1CC1)N1CCCc2nc(C3(C(=O)Nc4ccc(Cl)nc4)CC4(CC4)C3)ccc21 [Example 418, 2-(5-((6-chloropyridin-3-yl)carbamoyl)spiro[2.3]hexan-5-yl)-5-(cyclopropoxycarbonyl)-5,6,7,8-tetrahydro-1,5-naphthyridin-1-ium 2,2,2-trifluoroacetate]
5.7 nM	36 nM	–	CC(C(=O)Nc1ccc(F)cc1)c1ccc2c(c1)CCCN2C(=O)c1cc(C(F)F)ccn1 (stereo not shown) [Example 38, 2-{1-[4-(difluoromethyl)pyridine-2-carbonyl]-1,2,3,4-tetrahydroquinolin-6-yl}-N-(4-fluorophenyl)propanamide]
